Molecular target: human APJ receptor (Homo sapiens (Human), UniProt P35414)
Assay: [35S]GTPγS binding assay on membranes from CHO cells stably expressing human APJ receptor
Assay type: biochemical
Settings: read-out: Activity hAPJ SPA EC50 IP
Description: [^35S]GTPγS Binding The human APJ receptor was cloned by polymerase chain reaction and the gene encoding the receptor was subcloned in pFLAG-CMV™-3 expression vector (Sigma, Saint Louis, Mo. USA) in-house at Amgen. A GTPγS binding assay was performed on membranes prepared from CHO cells stably expressing human APJ receptor. The optimum experimental conditions for the concentrations of GDP, MgCl2, and NaCl in the assay buffer were initially determined. […] Incubation was at RT for 90 min and the microplate was read using a ViewLux™ ultra HTS Microplate Imager (PerkinElmer, Inc.). All the results presented are means of several independent experiments and analyzed by non-linear regression methods using the commercially available program Prism (GraphPad, San Diego, Calif.) providing the EC50 values detailed in Table 13.

human APJ receptor, sequence (P35414 whole entry): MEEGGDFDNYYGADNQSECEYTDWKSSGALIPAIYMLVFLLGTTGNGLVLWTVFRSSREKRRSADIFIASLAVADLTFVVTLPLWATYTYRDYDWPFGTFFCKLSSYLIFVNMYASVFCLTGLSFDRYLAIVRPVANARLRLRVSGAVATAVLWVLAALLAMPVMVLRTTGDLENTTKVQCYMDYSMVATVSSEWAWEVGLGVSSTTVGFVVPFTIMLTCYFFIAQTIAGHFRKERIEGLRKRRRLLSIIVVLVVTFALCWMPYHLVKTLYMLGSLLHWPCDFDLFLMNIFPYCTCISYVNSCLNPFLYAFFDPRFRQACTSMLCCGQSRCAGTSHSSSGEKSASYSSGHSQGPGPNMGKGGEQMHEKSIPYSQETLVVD

SMILES | EC50 [nM]
COC[C@@H]1COc2ccc(OC)nc2-c2nnc(NS(=O)(=O)[C@@H](C)[C@@H](OC(C)C)c3ncc(C)cn3)n21 (single isomer, unassigned) [Example 15.0, (1S,2S)-N-((5R)-10-methoxy-5-(methoxymethyl)-5,6-dihydropyrido[2,3-f][1,2,4]triazolo[4,3-d][1,4]oxazepin-3-yl)-1-(5-methyl-2-pyrimidinyl)-1-(2-propanyloxy)-2-propanesulfonamide or (1S,2S)-N-((5S)-10-methoxy-5-(methoxymethyl)-5,6-dihydropyrido[2,3-f][1,2,4]triazolo[4,3-d][1,4]oxazepin-3-yl)-1-(5-methyl-2-pyrimidinyl)-1-(2-propanyloxy)-2-propanesulfonamide] | 37
Cc1cnc([C@@H](OC(C)C)[C@H](C)S(=O)(=O)Nc2nnc3n2[C@H](CO)COc2ncccc2-3)nc1 (mixture of isomers) [Example 57.0, (1R,2S)-N-((5R)-5-(hydroxymethyl)-5,6-dihydropyrido[3,2-f][1,2,4]triazolo[4,3-d][1,4]oxazepin-3-yl)-1-(5-methyl-2-pyrimidinyl)-1-(2-propanyloxy)-2-propanesulfonamide and (1R,2S)-N-((5S)-5-(hydroxymethyl)-5,6-dihydropyrido[3,2-f][1,2,4]triazolo[4,3-d][1,4]oxazepin-3-yl)-1-(5-methyl-2-pyrimidinyl)-1-(2-propanyloxy)-2-propanesulfonamide] | > 12500
COc1ccc2c(n1)-c1nnc(NS(=O)(=O)[C@@H](C)[C@@H](OC(C)C)c3ncc(C)cn3)n1[C@H](CO)CO2 (single isomer, unassigned) [Example 18.0, (1S,2S)-N-((R)-5-(hydroxymethyl)-10-methoxy-5,6-dihydropyrido[2,3-f][1,2,4]triazolo[4,3-d][1,4]oxazepin-3-yl)-1-isopropoxy-1-(5-methylpyrimidin-2-yl)propane-2-sulfonamide or (1S,2S)-N-((S)-5-(hydroxymethyl)-10-methoxy-5,6-dihydropyrido[2,3-f][1,2,4]traizolo[4,3-d][1,4]oxazepin-3-yl)-1-isopropoxy-1-(5-methylpyrimidin-2-yl)propane-2-sulfonamide] | 640
COC[C@@H]1COc2cnccc2-c2nnc(NS(=O)(=O)[C@@H](C)[C@@H](OC(C)C)c3ncc(C)cn3)n21 (stereo in doubt) [Example 43.0, (1S,2S)-N-((5R)-5-(methoxymethyl)-5,6-dihydropyrido[4,3-f][1,2,4]triazolo[4,3-d][1,4]oxazepin-3-yl)-1-(5-methyl-2-pyrimidinyl)-1-(2-propanyloxy)-2-propanesulfonamide and (1S,2S)-N-((5S)-5-(methoxymethyl)-5,6-dihydropyrido[4,3-f][1,2,4]traizolo[4,3-d][1,4]oxazepin-3-yl)-1-(5-methyl-2-pyrimidinyl)-1-(2-propanyloxy)-2-propanesulfonamide] | 1200
COC[C@@H]1COc2ncccc2-c2nnc(NS(=O)(=O)CCc3ncc(C)cn3)n21 (single isomer, unassigned) [Example 34.0, N-((5R)-5-(methoxymethyl)-5,6-dihydropyrido[3,2-f][1,2,4]triazolo[4,3-d][1,4]oxazepin-3-yl)-2-(5-methyl-2-pyrimidinyl)ethanesulfonamide or N-((5S)-5-(methoxymethyl)-5,6-dihydropyrido[3,2-f][1,2,4]triazolo[4,3-d][1,4]oxazepin-3-yl)-2-(5-methyl-2-pyrimidinyl)ethanesulfonamide] | 180
COC[C@@H]1COc2cccnc2-c2nnc(NS(=O)(=O)[C@@H](C)[C@@H](OC(C)C)c3ncc(C)cn3)n21 (single isomer, unassigned) [Example 69.0, (1S,2S)-N-((5R)-5-(methoxymethyl)-5,6-dihydropyrido[2,3-f][1,2,4]triazolo[4,3-d][1,4]oxazepin-3-yl)-1-(5-methyl-2-pyrimidinyl)-1-(2-propanyloxy)-2-propanesulfonamide or (1S,2S)-N-((5S)-5-(methoxymethyl)-5,6-dihydropyrido[2,3-f][1,2,4]triazolo[4,3-d][1,4]oxazepin-3-yl)-1-(5-methyl-2-pyrimidinyl)-1-(2-propanyloxy)-2-propanesulfonamide] | 230
COc1ccc2c(n1)-c1nnc(NS(=O)(=O)[C@@H](C)[C@@H](OC(C)C)c3ncc(C)cn3)n1[C@H](CO)CO2 (single isomer, unassigned) [Example 19.0, (1S,2S)-N-((R)-5-(hydroxymethyl)-10-methoxy-5,6-dihydropyrido[2,3-f][1,2,4]triazolo[4,3-d][1,4]oxazepin-3-yl)-1-isopropoxy-1-(5-methylpyrimidin-2-yl)propane-2-sulfonamide or (1S,2S)-N-((S)-5-(hydroxymethyl)-10-methoxy-5,6-dihydropyrido[2,3-f][1,2,4]triazolo[4,3-d][1,4]oxazepin-3-yl)-1-isopropoxy-1-(5-methylpyrimidin-2-yl)propane-2-sulfonamide] | 990
CO[C@H](c1ncc(C)cn1)[C@H](C)S(=O)(=O)Nc1nnc2n1[C@H](COC(C)C)COc1ncccc1-2 (mixture of isomers) [Example 56.0, (1R,2S)-N-((R)-5-(isopropoxymethyl)-5,6-dihydropyrido[3,2-f][1,2,4]triazolo[4,3-d][1,4]oxazepin-3-yl)-1-methoxy-1-(5-methylpyrimidin-2-yl)propane-2-sulfonamide and (1R,2S)-N-((S)-5-(isopropoxymethyl)-5,6-dihydropyrido[3,2-f][1,2,4]triazolo[4,3-d][1,4]oxazepin-3-yl)-1-methoxy-1-(5-methylpyrimidin-2-yl)propane-2-sulfonamide] | 2200
COc1ccc2c(c1)-c1nnc(NS(=O)(=O)[C@@H](C)[C@@H](OC(C)C)c3ncc(C)cn3)n1C(CO)CO2 (single isomer, unassigned) [Example 150.0, (1S,2S)-N-((5R)-5-(hydroxymethyl)-10-methoxy-5,6-dihydro[1,2,4]triazolo[4,3-d][1,4]benzoxazepin-3-yl)-1-(5-methyl-2-pyrimidinyl)-1-(2-propanyloxy)-2-propanesulfonamide or (1S,2S)-N-((5S)-5-(hydroxymethyl)-10-methoxy-5,6-dihydro[1,2,4]triazolo[4,3-d][1,4]benzoxazepin-3-yl)-1-(5-methyl-2-pyrimidinyl)-1-(2-propanyloxy)-2-propanesulfonamide] | 1880
COC[C@@H]1COc2c(OC)cccc2-c2nnc(NS(=O)(=O)[C@@H](C)[C@@H](OC(C)C)c3ncc(C)cn3)n21 (mixture of isomers) [Example 33.0, (1S,2S)-N-((5R)-8-methoxy-5-(methoxymethyl)-5,6-dihydro[1,2,4]triazolo[4,3-d][1,4]benzoxazepin-3-yl)-1-(5-methyl-2-pyrimidinyl)-1-(2-propanyloxy)-2-propanesulfonamide and (1S,2S)-N-((5S)-8-methoxy-5-(methoxymethyl)-5,6-dihydro[1,2,4]triazolo [4,3-d][1,4]benzoxazepin-3-yl)-1-(5-methyl-2-pyrimidinyl)-1-(2-propanyloxy)-2-propanesulfonamide] | 15
CC(C)O[C@@H](c1ncc(Cl)cn1)[C@H](C)S(=O)(=O)Nc1nnc2n1[C@H](CO)COc1ncccc1-2 (mixture of isomers) [Example 31.0, (1S,2S)-1-(5-chloro-2-pyrimidinyl)-N-((5R)-5-(hydroxymethyl)-5,6-dihydropyrido[3,2-f][1,2,4]triazolo[4,3-d][1,4]oxazepin-3-yl)-1-(2-propanyloxy)-2-propanesulfonamide and (1S,2S)-1-(5-chloro-2-pyrimidinyl)-N-((5S)-5-(hydroxymethyl)-5,6-dihydropyrido[3,2-f][1,2,4]triazolo[4,3-d][1,4]oxazepin-3-yl)-1-(2-propanyloxy)-2-propanesulfonamide] | 720
COC[C@@H]1COc2ccccc2-c2nnc(NS(=O)(=O)[C@@H](C)[C@@H](OC(C)C)c3ncc(C)cn3)n21 (single isomer, unassigned) [Example 4.0, (1S,2S)-N-((5R)-5-(methoxymethyl)-5,6-dihydro[1,2,4]triazolo[4,3-d][1,4]benzoxazepin-3-yl)-1-(5-methyl-2-pyrimidinyl)-1-(2-propanyloxy)-2-propanesulfonamide or (1S,2S)-N-((5S)-5-(methoxymethyl)-5,6-dihydro[1,2,4]triazolo[4,3-d][1,4]benzoxazepin-3-yl)-1-(5-methyl-2-pyrimidinyl)-1-(2-propanyloxy)-2-propanesulfonamide] | 17
COC[C@@H]1COc2cc(F)c(F)cc2-c2nnc(NS(=O)(=O)[C@@H](C)[C@@H](OC(C)C)c3ncc(C)cn3)n21 (mixture of isomers) [Example 16.0, (1S,2S)-N-((5R)-9,10-difluoro-5-(methoxymethyl)-5,6-dihydro[1,2,4]triazolo[4,3-d][1,4]benzoxazepin-3-yl)-1-(5-methyl-2-pyrimidinyl)-1-(2-propanyloxy)-2-propanesulfonamide and (1S,2S)-N-((5S)-9,10-difluoro-5-(methoxymethyl)-5,6-dihydro[1,2,4]triazolo[4,3-d][1,4]benzoxazepin-3-yl)-1-(5-methyl-2-pyrimidinyl)-1-(2-propanyloxy)-2-propanesulfonamide] | 1700
COC[C@@H]1COc2ccc(F)cc2-c2nnc(NS(=O)(=O)CCc3ncc(C)cn3)n21 (mixture of isomers) [Example 42.0, N-((5R)-10-fluoro-5-(methoxymethyl)-5,6-dihydro[1,2,4]triazolo[4,3-d][1,4]benzoxazepin-3-yl)-2-(5-methyl-2-pyrimidinyl)ethanesulfonamide and N-((5S)-10-fluoro-5-(methoxymethyl)-5,6-dihydro[1,2,4]triazolo[4,3-d][1,4]benzoxazepin-3-yl)-2-(5-methyl-2-pyrimidinyl)ethanesulfonamide] | 4100

Source: patent US11149040B2, “Fused triazole agonists of the APJ receptor” (AMGEN INC., priority 2017, dated 2021)
